# Results published in patent US20220002288A1, “MONOBACTAM COMPOUNDS AND USE THEREFOR” (priority 2018, published 2022).
# Structures can show the parent of a compound that is named as a salt.
# Assays:
# Type in all cases: cell-based
# [1] = test system: Acinetobacter baumannii, Pseudomonas aeruginosa, and Escherichia coli; experiment: In vitro antibacterial activity, summary statements over all strains of Experimental Example 1; settings: method of Experimental Example 1
# Description: (§1) Compounds: The compounds prepared in the above examples and comparative examples. All test compounds were dissolved and diluted with DMSO, and the final concentrations were prepared as 64, 32, 16, 8, 4, 2, 1, 0.5, 0.25, 0.125, 0.0625 μg/mL in the experiment.
# (§2) Bacterial strains: 6 strains of Acinetobacter baumannii (codenames: HDBAB-YK4, HDBAB-YK7, HDBAB-YK12, HDBAB-YK16, HDBAB_OXA_7, ATCC 19606), 2 strains of Pseudomonas aeruginosa (codenames: HDBPA-YK9, HDBPA)-YK15), 1 strain of Escherichia coli (codename: CLB30048), all provided by HD Biosciences (Shanghai) Co., Ltd.
# The minimum inhibitory concentration (MIC) of each compound was recorded according to the guidelines of the Clinical and Laboratory Standards Institute.
# [2] = test system: Acinetobacter baumannii; experiment: In vitro antibacterial activity, minimum inhibitory concentration (MIC)
# Description: as §1, §2
# (§3) Medium: Trypticase soy agar (TSA) (BD BBL 211043), and Cation-adjusted Mueller Hinton broth (CAMHB) (BD BBL212322).
# (§4) The bacteria used for the minimum inhibitory concentration (MIC) test were stored frozen at −80° C., and needed 2 days to recover before use. A small amount of frozen bacteria was scraped with a sterile inoculation loop for streak inoculation on a TSA solid medium petri dish. The dish was placed in an ordinary incubator at 35±2° C. for 20-24 hours. 5-10 Colonies with similar morphologies were picked from the above-mentioned petri dish with a sterile inoculating loop for streak inoculation again on a TSA solid medium petri dish. The dish was then placed in an ordinary incubator at 35±2° C. for 20-24 hours.
# (§5) 1.02×CAMHB liquid medium was taken out from a 4° C. refrigerator and placed at room temperature for preheating. 5-10 Individual bacterial colonies were picked from the solid petri dish of the above Section 2.1 and re-suspended in 500 μL of 0.9% NaCl, and then the OD600 was adjusted to 0.1-0.15 with a spectrophotometer. Then the bacteria were diluted 400 times with 1.02×CAMHB (two-step dilution method: firstly diluting 10 times, then diluting 40 times).
# (§6) The number of inoculated bacteria can be obtained by counting the colonies on the petri dish (see Section 2.4).
# (§7) One compound was arranged in each row of a 96-well test plate: the highest test concentration for each compound was 64 μg/mL, which was diluted by a factor of two.
# (§8) Growth control (GC): 1.02×CAMHB and dimethyl sulfoxide (DMSO) containing bacterial inoculum, no compound.
# (§9) Sterile control (SC): Containing 1.02×CAMHB and DMSO, no compound.
# (§10) All test compounds were dissolved and diluted with DMSO. 50 μL of 3.2 mg/mL of each test compound was transferred to the initial well (A1-H1) of the dilution plate, and then 25 μL of DMSO was transferred to other wells. The test compounds were sequentially diluted by a factor of 2 from column 1 to column 11 (i.e. drawing 25 μL of test compound from column 1 to column 2 and mixing well, and then drawing 25 μL of test compound from column 2 to column 3 and mixing well, and then drawing 25 μL of test compound from column 3 to column 4 and mixing well, and so on, until diluting to column 11).
# (§11) 2 μL of the compound was transferred from the compound plate to the corresponding well of the test plate. Meanwhile, 2 μL of 100% DMSO was transferred to the compound-free wells (the GC and SC wells).
# (§12) 98 μL of the corresponding bacterial inoculum was added to the test plate (except for the SC well).
# (§13) 98 μL of 1.02×CAMHB medium was added to the SC well of the test plate.
# (§14) After the system was added, the test plate was covered with a sterile lid, centrifuged at 800 rpm for 30 seconds, then shaken on a plate shaker at 400 rpm for 1 minute for mixing well, and then placed in an incubator at 35±2° C. for 20 hours.
# (§15) The inoculated bacteria were gradient diluted by 10 folds with the liquid medium, from 10^−1 to 10^−3. 100 μL of the above bacterial dilution was spread evenly on a TSA petri dish, 2 replicates for each dilution. After the medium was absorbed by TSA for 10 minutes, the petri dishes were reversed and incubated in an incubator at 35±2° C. for 24 hours.
# (§16) A compound management system was turned on to check whether the barcode and compound arrangement of each test plate were correct. […]
# [3] = test system: Pseudomonas aeruginosa; experiment: as above
# Description: as §1, §2, §3, §4, §5, §6, §7, §8, §9, §10, §11, §12, §13, §14, §15, §16
# [4] = test system: clinically isolated Escherichia coli; experiment: MIC experiment of clinically sourced bacterial strains
# Description: (§17) Compounds: the compound of Example 1 and Compound C of Comparative Example 3. Both test compounds were dissolved and diluted with DMSO, and the final concentrations were prepared as 64, 32, 16, 8, 4, 2, 1, 0.5, 0.25, 0.125, 0.0625 μg/mL in the experiment.
# (§18) Bacterial strains: clinically isolated Acinetobacter baumannii, Pseudomonas aeruginosa, Klebsiella pneumoniae and Escherichia coli, all provided by HD Biosciences (Shanghai) Co., Ltd.
# as §3
# (§19) The experimental method was the same as that in the above Experimental Example 1.
# [5] = test system: clinically isolated Klebsiella pneumoniae; experiment: as above; settings: for MIC: Klebsiella pneumoniae
# Description: as §17, §18, §3, §19
# [6] = test system: clinically isolated Acinetobacter baumannii; experiment: as above; settings: for MIC: Acinetobacter baumannii
# Description: as §17, §18, §3, §19
# [7] = test system: clinically isolated Pseudomonas aeruginosa; experiment: as above
# Description: as §17, §18, §3, §19
structure (smiles),measurement,setting,value
"CC1(C)[C@H](NC(=O)/C(=N\O[C@@H](COc2ccc(C(=O)Nc3cn(CCCN)[n+](CC4CNC4)c3)cc2)C(=O)O)c2csc(N)n2)C(=O)N1OS(=O)(=O)[O-] [Example 1, (S)-3-((Z)-2-(((S)-2-(4-((1-(3-aminopropyl)-2-(azetidin-3-ylmethyl)-1H-pyrazol-2-ium-4-yl)carbamoyl)phenoxy)-1-carboxyethoxy)imino)-2-(2-aminothiazol-4-yl)acetylamino)-2,2-dimethyl-4-oxoazetidin-1-yl Sulfate]",in vitro antibacterial activity (in words),[1],excellent antibacterial activity
same,MIC,"[2]; ATCC19606, strain ATCC 19606",2 µg/mL
same,MIC,[2]; strain HDBAB-YK4,2 µg/mL
same,MIC,[2]; strain HDBAB-YK7,0.25 µg/mL
same,MIC,[2]; strain HDBAB-YK12,2 µg/mL
same,MIC,[2]; strain HDBAB-YK16,8 µg/mL
same,MIC,[2]; strain HDBAB_OXA_7,4 µg/mL
same,MIC,[3]; strain HDBPA-YK9,2 µg/mL
same,MIC,[3]; strain HDBPA-YK15,32 µg/mL
same,MIC,[4]; clinical strain HDB0140,1 µg/mL
same,MIC,[4]; clinical strain HDB0918,0.25 µg/mL
same,MIC,[4]; clinical strain HDB1120,≤ 0.063 µg/mL
same,MIC,[4]; clinical strain HDB5510,0.125 µg/mL
same,MIC,[4]; clinical strain HDB8244,0.5 µg/mL
same,MIC,[5]; clinical strain Kp309,≤ 0.063 µg/mL
same,MIC,[5]; clinical strain Kp310,≤ 0.063 µg/mL
same,MIC,[5]; clinical strain Kp472,0.125 µg/mL
same,MIC,[5]; clinical strain Kp510,0.25 µg/mL
same,MIC value relative to that of Compound C,[5]; strain Kp309,¼
same,MIC,[6]; clinical strain A0242702,≤ 0.063 µg/mL
same,MIC,[6]; clinical strain A0244122,0.5 µg/mL
same,MIC,[6]; clinical strain A0248164,1 µg/mL
same,MIC,[6]; clinical strain A0248384,1 µg/mL
same,MIC,[6]; clinical strain A0252247,≤ 0.063 µg/mL
same,MIC,[6]; clinical strain A0254384,≤ 0.063 µg/mL
same,MIC,[6]; clinical strain A0255830,4 µg/mL
same,MIC,[6]; clinical strain A0257674,≤ 0.063 µg/mL
same,MIC,[6]; clinical strain A0258522,≤ 0.063 µg/mL
same,MIC,[6]; clinical strain A0262855,≤ 0.063 µg/mL
same,MIC,[6]; clinical strain A0270386,1 µg/mL
same,MIC,[6]; clinical strain A0272260,0.125 µg/mL
same,MIC,[6]; clinical strain A0273375,1 µg/mL
same,MIC,[6]; clinical strain A0273826,4 µg/mL
same,MIC,[6]; clinical strain A0274925,0.125 µg/mL
same,MIC,[6]; clinical strain A0283307,≤ 0.063 µg/mL
same,MIC,[6]; clinical strain A0284214,≤ 0.063 µg/mL
same,MIC,[6]; clinical strain A0284295,≤ 0.063 µg/mL
same,MIC,[6]; clinical strain A0284552,0.5 µg/mL
same,MIC,[6]; clinical strain A0285002,1 µg/mL
same,MIC,[6]; clinical strain A0285050,0.125 µg/mL
same,MIC,[6]; clinical strain A0285231,1 µg/mL
same,MIC,[6]; clinical strain A0285299,≤ 0.063 µg/mL
same,MIC,[6]; clinical strain A0285369,≤ 0.063 µg/mL
same,MIC,[6]; clinical strain A0285909,4 µg/mL
same,MIC,[6]; clinical strain A0286065,1 µg/mL
same,MIC90,[6]; clinically isolated Acinetobacter baumannii,4 µg/mL
same,MIC value relative to that of Compound C,"[6]; strains A0244122, A0255830, A0273826, A0285299, A0285909",¼
same,MIC,[7]; clinical strain P7,1 µg/mL
same,MIC,[7]; clinical strain P43,0.25 µg/mL
same,MIC,[7]; clinical strain P155,1 µg/mL
same,MIC,[7]; clinical strain P157,1 µg/mL
same,MIC,[7]; clinical strain P162,1 µg/mL
